# Assay results from patent US9078441B2, “Antimicrobial flush solutions” (Board of Regents, The University of Texas System, priority 2003, dated 2015).
# Columns and labels:
# [1] = tested on: methicillin-resistant Staphylococcus aureus (MRSA); test: Modified Robbins device (MRD) in vitro colonization model, MRSA in biofilm on silicone catheter segments; assay type: cell-based; settings: for 24 h growth after 15 min in drug mean CFU MRSA / suppression / eradication / regrowth of MRSA embedded in biofilm, in words: 15 min exposure; for 24 h growth after 15 min in drug mean CFU MRSA: then re-incubation in broth for 24 h at 37° C.; for suppression / eradication / regrowth of MRSA embedded in biofilm, in words: with or without 24 h re-incubation in broth; for 15 minutes in Drug mean CFU MRSA: catheter segments cultured by scrape sonication immediately after 15 min exposure at 37° C., confluent growth counted as 500
# Source text: (§1) The in vitro model utilized a modified Robbins device (MRD) to study the colonization of catheter segments with organisms embedded in biofilm. The modified Robbins device has been previously described (Nickel et al., 1991; Evans et al., 1987, see also U.S. Pat. No. 5,362,754) and is constructed from an acrylic block, 42 cm long with a lumen of 2×10 mm. It consists of 25 evenly spaced specimen plugs, each connected to a silicone catheter segment (Allegiance Healthcare Corp., McGaw Park, Ill.) whose anterior surface (0.3 cm^2) comes in conta-ct with the flushed infusate. After placing the catheter segments in the specimen plug of the modified Robbins device, the entire apparatus was gas sterilized using ethylene oxide. A 500 ml 5% dextrose in water (5% D5/W) was connected to the modified Robbins device through an intravenous tubing administration set and was subsequently infected with an innoculum of 10^8 CFU/ml of methicillin-resistant Staphylococcus aureus (MRSA), to produce an infected infusate at the concentration of 2×10^5 CFU/ml. The biofilm-producing S. aureus isolates were obtained from patients with CRBSI. In another series of experiments, 500 ml 5% D5/W bag was infected with a biofilm-producing C. parapsilosis using an inoculum of 10^5 CFU/ml to produce an infected infusate at a concentration of 2×10^2 CFU/ml of C. parapsilosis. The whole system was incubated at 37° C. and the infected infusate was flushed through the MRD using a peristaltic pump permitting the infusate to flow at the rate of 60 ml/hour for 8 hours. The modified Robbins device was left to incubate for a total of 18 hours (another 10 hours). Subsequently, the infected bag was removed and a 250 ml saline sterile bag which was infused through the MRD at 125 ml/hour for 2 hours in order to remove all free floating organisms. To insure biofilm formation, at least three catheter segments were randomly removed from the 25 evenly spaced catheter segments in the MRD and studied by scanning electron microscopy. This was repeated for every organism tested.
# (§2) The remaining catheter segments were removed and each segment was placed in a tube containing 2 ml of one of the following broth solutions: (1) Mueller-Hinton broth (Becton Dickinson & Co., Cockeysville, Md.); (2) EDTA at a concentration of 30 mg/ml in broth (Abbott Laboratories, North Chicago, Ill.); (3) minocycline at 3 mg/ml in broth (Wyeth-Ayerst Laboratories, Collegeville, Pa.); (4) minocycline (3 mg/ml) and EDTA combination (M-EDTA) in broth; (5) 25% ethanol (ETOH) solution in broth; (6) minocycline at 3 mg/ml in 25% ethanol solution in broth; (7) EDTA 30 mg/ml in 25% ethanol solution in broth; and (8) M-EDTA in 25% ethanol solution in broth. The experiments were repeated in triplicate or quadruplicate, and during each experiment, 2-5 catheter segments were exposed to the same solution for only 15 minutes at 37° C. Subsequently, some of the catheter segments were immediately removed and cultured by scrape sonication. Other alternating catheter segments were removed, placed in broth (TSB), incubated for 24 hours, and then cultured by scrape sonication. This added step of re-incubating catheter segments in broth after the 15 minutes exposure was done to determine whether these agents suppressed the growth of organisms embedded in biofilm or eradicated them. The surface of the catheter segment that was exposed to the infected infusate was scraped with a sterile wooden applicator stick and placed, along with the stick, in a tube containing 0.5 ml of trypticase soy broth. The tubes were sonicated for five minutes; 0.1 ml of the sonicated broth solution in the tube was pipetted and plated over a blood agar plate, which was incubated at 37° for 24 hours. The agar plates were checked for any contaminants. The isolated organisms had to be of the same species and colonial morphology as the original organism used to infect the infusate.
# [2] = tested on: C. parapsilosis; test: Modified Robbins device (MRD) in vitro colonization model, Candida parapsilosis in biofilm on silicone catheter segments; assay type: cell-based; settings: for 24 h Growth after 15 Minutes in Drug Mean CFU C. Parapsilosis / suppression / eradication / regrowth of C. parapsilosis embedded in biofilm, in words: 15 min exposure; for 24 h Growth after 15 Minutes in Drug Mean CFU C. Parapsilosis: then re-incubation in broth for 24 h; for suppression / eradication / regrowth of C. parapsilosis embedded in biofilm, in words: with or without 24 h re-incubation in broth; for 15 Minutes in Drug Mean CFU C. Parapsilosis: cultured immediately after 15 min exposure at 37° C.
# Source text: as §1, §2
# [3] = tested on: MRSA; test: Silicone disk bioprosthetic colonization MRSA model; assay type: cell-based, Staphylococcus aureus; settings: for suppression / eradication / regrowth of bioprosthetic MRSA colonization of silicone disks, in words / 1 hour in Drug Mean CFU ± std. error: 1 hour exposure; for suppression / eradication / regrowth of bioprosthetic MRSA colonization of silicone disks, in words: with or without 24 h incubation; for 1 hour in Drug Mean CFU ± std. error / 24 h Growth after 1 hour in Drug Mean CFU ± std. error: MRSA on silicone disks; for 1 hour in Drug Mean CFU ± std. error: up to 5,000 CFU/disk; for 24 h Growth after 1 hour in Drug Mean CFU ± std. error: exposure then 24 h reincubation in TSB
# Experimental: (§3) On day 1, pieces of biofilm were prepared. Sterile (Ethylene Oxide Gas Sterilized) silicone disks were placed in 5 ml sterile snap top Falcon tubes and 0.5 ml of pooled plasma added. This was followed by incubation (while rocking) overnight at 37° C.
# (§4) On day 2, the bacteria was added to form the biofilm. Using sterile plastic transfer pipettes, the plasma was suctioned out from the tubes and replaced with 0.5 ml of bacterial inoculum (50 ml of Mueller-Hinton broth containing 4-5 colonies of freshly grown bacteria). The tubes were incubated overnight at 37° C.
# (§5) On day 3, a drug was added in an attempt to kill the bacteria. Before adding the drug, the pieces were washed in 0.5 ml of 0.9% saline in order to remove any planktonic bacteria. The tubes (containing the biofilm disks and saline) were placed in the incubator at 37° C. for 30 minutes. The saline was then pipetted out using sterile plastic transfer pipettes (taking care not to disturb the pieces too much). The silicone disks were then transferred to new 5 ml snap-top falcon tubes containing 0.5 ml of the drug solution to be tested. The drug solutions tested were as follows: (1) minocycline 3 mg/ml; (2) EDTA 30 mg/ml; (3) 25% ethanol solution; (4) EDTA 30 mg/ml in 25% ethanol; (5) minocycline 3 mg/ml in 25% ethanol; (6) minocycline 3 mg/ml with EDTA 30 mg/ml; and (7) triple combination of minocycline 3 mg/ml and EDTA 30 mg/ml in 25% ethanol solution. The disks were allowed to sit in the drug for 1 hour. The drug was then suctioned out using a plastic transfer pipette. The pieces were once again washed with 0.5 ml saline (added, and shaken for 30 seconds). The disks were then transferred to 15 ml snap-top falcon tubes containing 5 ml of 0.9% saline. The pieces were sonicated for 5 minutes, and then vortexed for 30 seconds. 100 microliters (μl) of the saline was then plated on a room temperature TSAII blood agar plate, and evenly spread using a sterile glass spreader. The plates were incubated overnight at 37° C.
# (§6) For the 24 hour reincubation studies, pieces of biofilm were prepared the same exact way as the regular pieces. Before adding the drug, the pieces were washed in 0.5 ml of 0.9% saline in order to remove any planktonic bacteria. The tubes (now containing the biofilm disks and saline) were placed in the incubator at 37° C. for 30 minutes. The saline was then pipetted out using sterile plastic transfer pipettes (taking care not to disturb the pieces too much). The silicone disks were then transferred to new 5 ml snap-top falcon tubes containing 0.5 ml of the drug to be tested. […] The drug was then suctioned out using a plastic transfer pipette. The pieces were once again washed with 0.5 ml saline (added, and shaken for 30 seconds). The pieces were then transferred to new sterile 5 ml snap-top falcon tubes containing 0.5 ml of sterile trypticase soy broth (TSB) and then placed in the incubator at 37° C. overnight.
# (§7) On day 4, colonies were counted and the results recorded. The colonies were hand counted, and counting was stopped at 100 colonies. Anything greater was considered >100 colonies. The counts were recorded, and multiplied by a factor of 50 because of the dilution factor between the 5 ml of saline containing the disk and the 100 μl that was plated onto the TSAII blood agar plates. The pieces were then sonicated (in the same TSB that grew overnight) for 5 minutes. 100 μl was then plated on TSAII blood agar plates, and the plates were placed in the incubator to grow overnight at 37° C.
# (§8) On day 5, the regrowth pieces were counted. The colonies were hand counted, and counting was stopped at 100 colonies. Anything greater was considered >100 colonies. The counts were recorded, and multiplied by a factor of 5 because of the dilution factor between the 0.5 ml of TSB containing the disk and the 100 μl that was plated onto the TSAII blood agar plates.
# [4] = tested on: Candida parapsilosis; test: Silicone disk bioprosthetic colonization Candida parapsilosis model; assay type: cell-based; settings: for suppression / eradication of Candida parapsilosis growth on silicone disks, in words / 1 hour in Drug Mean CFU C. Parapsilosis: 1 hour exposure; for 1 hour in Drug Mean CFU C. Parapsilosis / 24 h Growth after 1 hour in Drug Mean CFU C. Parapsilosis: silicone disks; for 24 h Growth after 1 hour in Drug Mean CFU C. Parapsilosis: exposure then 24 h reincubation in TSB
# Experimental: as §3, §4, §5, §6, §7, §8
# [5] = tested on: organisms that colonize the lumen of the catheter; settings: dwell time of 4-24 hours; cited from earlier work
SMILES,24 h growth after 15 min in drug mean CFU MRSA [1],"suppression / eradication / regrowth of MRSA embedded in biofilm, in words [1]",15 minutes in Drug mean CFU MRSA [1],24 h Growth after 15 Minutes in Drug Mean CFU C. Parapsilosis [2],"suppression / eradication / regrowth of C. parapsilosis embedded in biofilm, in words [2]",15 Minutes in Drug Mean CFU C. Parapsilosis [2],"suppression / eradication / regrowth of bioprosthetic MRSA colonization of silicone disks, in words [3]",1 hour in Drug Mean CFU ± std. error [3],24 h Growth after 1 hour in Drug Mean CFU ± std. error [3],"suppression / eradication of Candida parapsilosis growth on silicone disks, in words [4]",1 hour in Drug Mean CFU C. Parapsilosis [4],24 h Growth after 1 hour in Drug Mean CFU C. Parapsilosis [4],24 h growth after 15 min in drug mean CFU MRSA ([1]; listed as 25% ethanol solution),15 minutes in Drug mean CFU MRSA ([1]; listed as 25% ethanol solution),"eradication of microbial organisms embedded in biofilm from catheter surfaces, in words [5]"
"CN(C)c1ccc(O)c2c1C[C@H]1C[C@H]3[C@H](N(C)C)C(O)=C(C(N)=O)C(=O)[C@@]3(O)C(O)=C1C2=O [3 mg/ml minocycline, minocycline]",308.3 ± 151.1 CFU,some decrease in colonization,323.7 ± 199.0 CFU,500.0 ± 0.0 CFU,failed to eradicate,138.3 ± 111.8 CFU,failed to suppress,5000.0 ± 0.0 CFU,5000.0 ± 0.0 CFU,failed to suppress or eradicate,5000.0 ± 0.0 CFU,5000.0 ± 0.0 CFU,,,
"CCO [25% EtOH in MHB, ethanol]",500.0 ± 0.0 CFU,,138.0 ± 193.8 CFU,142.9 ± 225.9 CFU,regrowth was noted,0 CFU,failed to suppress,2900.0 ± 722.8 CFU,5000.0 ± 0.0 CFU,failed to completely suppress,1933 ± 601.6 CFU,3875.0 ± 618.3 CFU,500 CFU,138 CFU,
"O=C(O)CN(CCN(CC(=O)O)CC(=O)O)CC(=O)O [30 mg/ml EDTA, ethylenediamine-N,N,N′,N′,-tetraacetic acid]",500.0 ± 0.0 CFU,failed to eradicate,479.6 ± 44.9 CFU,500.0 ± 0.0 CFU,failed to eradicate,160 ± 78.8 CFU,failed to suppress,5000.0 ± 0.0 CFU,5000.0 ± 0.0 CFU,failed to suppress or eradicate,5000.0 ± 0.0 CFU,5000.0 ± 0.0 CFU,,,
"CN[C@H](CC(C)C)C(=O)N[C@H]1C(=O)N[C@@H](CC(N)=O)C(=O)N[C@H]2C(=O)N[C@H]3C(=O)N[C@H](C(=O)N[C@H](C(=O)O)c4cc(O)cc(O)c4-c4cc3ccc4O)[C@H](O)c3ccc(c(Cl)c3)Oc3cc2cc(c3O[C@@H]2O[C@H](CO)[C@@H](O)[C@H](O)[C@H]2O[C@H]2C[C@](C)(N)[C@H](O)[C@H](C)O2)Oc2ccc(cc2Cl)[C@H]1O [vancomycin alone, vancomycin]",,,,,,,,,,,,,,,failed to eradicate
